In patent US20030032791A1, “Novel melanocortin-4 receptor sequences and screening assays to identify compounds useful in regulating animal appetite and metabolic rate” (priority 2000, published 2003):
Where two headings read alike, the source gives them in different places. Marks after values point to notes of the source that are not given here. One block for each compound: values may come before it. Residues, ends and D or L forms follow the SMILES beside them.

What was measured:
hMC3R [1] = molecular target: T1, hMC3R (Homo sapiens, UniProt P41968); experiment: hMC3R; parameters: expressed in transfected cells; host or cells: HEK293
Target sequence in this assay (P41968 whole entry, looked up): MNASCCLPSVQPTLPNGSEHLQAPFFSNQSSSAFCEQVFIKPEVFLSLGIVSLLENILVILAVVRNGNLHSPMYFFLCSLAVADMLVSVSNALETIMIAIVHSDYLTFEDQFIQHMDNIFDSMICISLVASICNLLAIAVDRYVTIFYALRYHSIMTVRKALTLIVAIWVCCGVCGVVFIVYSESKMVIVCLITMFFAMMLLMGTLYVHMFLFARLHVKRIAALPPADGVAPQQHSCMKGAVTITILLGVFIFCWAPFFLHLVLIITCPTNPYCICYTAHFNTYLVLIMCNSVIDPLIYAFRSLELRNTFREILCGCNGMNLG

hMC4R [2] = molecular target: T2, hMC4R (Homo sapiens, UniProt P32245); experiment: hMC4R; parameters: expressed in transfected cells; host or cells: HEK293
Target sequence in this assay (P32245 whole entry, looked up): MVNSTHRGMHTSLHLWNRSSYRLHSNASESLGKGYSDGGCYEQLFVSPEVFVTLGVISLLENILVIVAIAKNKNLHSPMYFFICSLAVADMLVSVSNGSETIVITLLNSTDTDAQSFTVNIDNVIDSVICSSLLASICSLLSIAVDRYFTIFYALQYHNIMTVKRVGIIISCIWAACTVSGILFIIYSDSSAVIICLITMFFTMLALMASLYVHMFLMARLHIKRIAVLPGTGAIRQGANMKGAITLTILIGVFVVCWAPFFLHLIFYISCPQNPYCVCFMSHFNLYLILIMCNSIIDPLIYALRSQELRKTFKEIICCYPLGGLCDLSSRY

hMC4R [3] = molecular target: T2, hMC4R
Target sequence in this assay (P32245 whole entry): as the sequence (P32245 whole entry, looked up) above

cMC4R [4] = experiment: cMC4R
hMC3R [5] = molecular target: T1, hMC3R
Target sequence in this assay (P41968 whole entry): as the sequence (P41968 whole entry, looked up) above

canine MC4R (canine) [6] = molecular target: canine MC4R (canine)
hMC3R [7] = molecular target: T1, hMC3R; remark: listed apart in the source
Target sequence in this assay (P41968 whole entry): as the sequence (P41968 whole entry, looked up) above

cMC4R [8] = experiment: FLIPR calcium release assay in HEK293a/cMC4R/Gα15, Gα16 cells; conditions: read-out: EC50, agonist stimulated calcium release; HEK293a/cMC4R/Gα15, Gα16, Fluo-4
canine MC4R (canine) [9] = experiment: cell-based or functional assay
Obese Beagle Dogs [10] = experiment: 24 hr food intake following ICV injection in lateral ventricle cannulated dogs; type: in vivo, dog; conditions: NDP-MSH 100 nmol
Excerpt: (§1) Healthy, (1-3 years of age) male and female beagles (Marshall Farms, North Rose N.Y.) weighing 11-15 kg were employed as test subjects. The animals were surgically implanted with lateral ventricle cannulas using standard techniques. Wilsson-Rahmberg et al., 1998, J. Investigative Surgery, 11:207-214. Cannula placement and patency were confirmed with fluoroscopy. The dogs were housed individually in standard caging meeting or exceeding the USDA regulations (U.S. Department of Agriculture, Animal Welfare, Final Rules. 9 C.F.R. Parts 1-3,1995).
Each subject received a single 50 μl injection in one lateral ventricle (ICV injection) of one of 3 solutions: 30-100 nmol of the non-specific melanocortin (MC) receptor agonist [N1 e^4, D-Phe^7]-α-MSH (hereinafter “NDP-MSH,” Bachem Bioscience Inc., King of Prussia Pa.), 1-2 nmol of the MC3/4 receptor antagonist SHU-9119 (Bachem Bioscience Inc., King of Prussia, Pa.) or vehicle which consisted of artificial cerebrospinal fluid (hereinafter “aCSF,” Harvard Apparatus, Holliston, Mass.). […] Following ICV injection, resulting effects on food intake or metabolic rate were determined.
The studies consisted of one group of animals containing five dogs. […] Resulting effects on food intake were determined. […] Resulting effects on food intake were determined. […] Resulting effects on metabolic rate were determined. […] Resulting effects on metabolic rate were determined. […]

Obese Beagle Dogs [11] = experiment: Indirect calorimetry following ICV injection in lateral ventricle cannulated dogs; type: in vivo, dog; conditions: NDP-MSH 75 mol
Excerpt: as §1
Each subject received a single 50 μl injection in one lateral ventricle (ICV injection) of one of 3 solutions: 30-100 nmol of the non-specific melanocortin (MC) receptor agonist [N1 e^4, D-Phe^7]-α-MSH (hereinafter “NDP-MSH,” Bachem Bioscience Inc., King of Prussia Pa.), 1-2 nmol of the MC3/4 receptor antagonist SHU-9119 (Bachem Bioscience Inc., King of Prussia, Pa.) or vehicle which consisted of artificial cerebrospinal fluid (hereinafter “aCSF,” Harvard Apparatus, Holliston, Mass.). NDP-MSH and SHU-9119 were received as a dry powder and were reconstituted with aCSF to achieve an appropriate concentration for a ^50 μl injection. Following ICV injection, resulting effects on food intake or metabolic rate were determined.
The studies consisted of one group of animals containing five dogs. In study 1, dogs received either NDP-MSH or aCSF on day 0 in a cross-over design with two dogs receiving NDP-MSH first and three dogs receiving aCSF first. Resulting effects on food intake were determined. In study 2, dogs received either SHU-9119 or aCSF on day 0 in a cross-over design with two dogs receiving SHU-9119 first and three dogs receiving aCSF first. Resulting effects on food intake were determined. In study 3, dogs received either NDP-MSH or aCSF on day 0 in a cross-over design with three dogs receiving NDP-MSH first and two dogs receiving aCSF first. Resulting effects on metabolic rate were determined. In study 4, dogs received either SHU-9119 or aCSF on day 0 in a cross-over design with three dogs receiving SHU-9119 first and two dogs receiving aCSF first. Resulting effects on metabolic rate were determined. Each test animal was permitted ad libitum access to water and IAMS […]® (The IAMS Company, Dayton Ohio) dry food each day during the study unless otherwise noted.
Reduction or increase in metabolic rate was measured by standard indirect calorimetry using an open circuit calorimeter (OXYMAX DELUXE@, Columbus Instruments, Columbus Ohio). Dogs were fasted for approximately 18 hours prior to ICV injection. Calorimetry sessions were initiated approximately 2 hours after ICV injection and lasted for 60-90 minutes.

hMC4R [12] = molecular target: T2, hMC4R; remark: listed apart in the source
Target sequence in this assay (P32245 whole entry): as the sequence (P32245 whole entry, looked up) above

canine MC4R = canine MC4R (Canis lupus familiaris, UniProt A0A2Z6BEC9); conditions: 1 pM α-MSH
[13] = versus aCSF control, SHU 9119 2 nmol ICV
[14] = ICV injection, SHU 9119 2 nmol, about 2 hours after injection, fasted dogs

Chain of canine MC4R (canine) (Q0Z8I9 other isoform, or with tags, fused parts or gaps): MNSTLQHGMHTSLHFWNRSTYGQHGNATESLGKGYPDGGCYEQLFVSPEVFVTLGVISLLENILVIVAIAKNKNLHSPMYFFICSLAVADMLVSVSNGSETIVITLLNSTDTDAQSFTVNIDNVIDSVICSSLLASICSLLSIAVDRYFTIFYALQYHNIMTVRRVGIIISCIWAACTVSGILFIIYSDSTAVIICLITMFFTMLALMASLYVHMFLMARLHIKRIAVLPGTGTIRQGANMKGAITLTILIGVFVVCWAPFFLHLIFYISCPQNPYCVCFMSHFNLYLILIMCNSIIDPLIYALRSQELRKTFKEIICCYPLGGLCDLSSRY
Chain of canine MC4R (A0A2Z6BEC9 1-332): as the sequence (Q0Z8I9 other isoform, or with tags, fused parts or gaps) above

Compound: JKC363 (peptide)
IC50 (canine MC4R (canine) [6]): 1.27 nM
IC50 (hMC3R [7]): 22.8 nM

Compound: MTII (peptide)
IC50 (canine MC4R (canine) [6]): 0.877 nM
EC50, agonist stimulated calcium release (FLIPR, HEK293a/cMC4R/Gα15, Gα16 cells) (canine MC4R (canine) [9]): 10 nM

Compound: SHU9119
24 hr Food Intake, Average (Obese Beagle Dogs [10]; ICV injection, SHU 9119 2 nmol): 366 g
24 hr Food Intake, % Change (Obese Beagle Dogs [10]; [13]): +132* %
Heat Produced, Average (Obese Beagle Dogs [11]; [14]): 13 kcal/h
VO2, Average (Obese Beagle Dogs [11]; [14]): 3.6 mL/min/kg
Heat Produced, % Change (Obese Beagle Dogs [11]; [13]): −37* %
VO2, % Change (Obese Beagle Dogs [11]; [13]): −38* %

Compound: α-MSH (from UniProt P01189 138-150) (peptide)
EC50, agonist stimulated calcium release (FLIPR, HEK293a/cMC4R/Gα15, Gα16 cells) (canine MC4R (canine) [9]): 55 nM
cAMP, fold over negative control cells (canine MC4R (canine) [9]): 10 fold
concentration of cAMP in α-MSH treated cells (1.5×10^6 cells/ml) (canine MC4R (canine) [9]): 13.8 pmol/mL

Now from value to compound:

IC50 (hMC3R [1]): 15.1 nM
IC50 (hMC4R [2]): 1.31 nM
IC50 (hMC4R [3]): 2.11 nM
IC50 (cMC4R [4]): 0.971 nM
IC50 (hMC3R [5]): 22.7 nM
Compound: N=C(N)NCCC[C@@H]1NC(=O)[C@@H](Cc2ccc3ccccc3c2)NC(=O)[C@H](Cc2c[nH]cn2)NC(=O)[C@H](CCC(=O)O)NC(=O)CCSSC[C@@H](C(=O)N2CCC[C@H]2C(=O)N2CCC[C@H]2C(=O)N[C@@H](CCCCN)C(=O)N[C@@H](CC(=O)O)C(N)=O)NC(=O)CNC(=O)[C@H](Cc2c[nH]c3ccccc23)NC1=O [JKC363] (HELM PEPTIDE1{[O=C(CCS[*:3])[*:2]].E.H.[O=C([C@@H](Cc1ccc2ccccc2c1)N[*:1])[*:2]].R.W.G.C.P.P.K.D.[am]}$PEPTIDE1,PEPTIDE1,1:R3-8:R3$$$V2.0; C-terminus assumed)

EC50 (cMC4R [8]): 10 nM
Compound: MTII

IC50 (hMC4R [12]): 0.0116 nM
IC50 (hMC3R [7]): 0.188 nM
IC50, antagonist inhibition of calcium release in the presence of 20 nM NDP-MSH agonist (FLIPR) (canine MC4R (canine) [9]): 2 nM
Compound: SHU9119 (peptide)

concentration of cAMP (canine MC4R; 30 minutes, most concentrated batch of cells (1.5×10^6 cells/ml)): 13.82 pmol/mL
cAMP levels over background (canine MC4R; cells at each concentration (0.5, 1.0, 1.5×10^6 cells/ml)): significant increase
difference in cAMP versus negative control cells (canine MC4R; most concentrated batch of cells): almost ten-fold
EC50 (cMC4R [8]): 55 nM
Compound: α-MSH
